# Where “and” joins values, the source holds several entries; their conditions need not be identical. Identical values can stand only once. Like-named read-outs stand apart in the source and are kept apart here.
# Experiments:
# alkaline phosphatase [1] = assay type: biochemical
# Procedure: New stocks were made the of the 1:100 alkaline phosphatase reaction reagents.
# The conditions included: 1:100 dilution of alkaline phosphatase reaction reagent with two solvents (buffered saline and ethanol), dosing in 0.5 mL microcentrifuge tubes with 20 μL of chemical added to 180 μL of reaction reagent, and incubating with p-Nitrophenyl phosphate disodium salt (PNPP) substrate for 1-hour.
# alkaline phosphatase [2] = settings: 30 μL chemical in 300 μL reagent 1:100, 4 hours room temperature, 3 mL PNPP 1 hour
# Procedure: We changed the test chemical dosage to 30 μL and the alkaline phosphatase reaction reagent to 300 μL, but kept the incubation to 4 hours at room temperature.
# PBS: Take 4 mL of AP (1:10) stock solution, add to 36 mL PBS. Vortex mix and then invert to mix 10 times • ii. […] Vortex mix and then invert to mix 10 times • b. PBS (lx) • c. […] Prepare 4 mL glass vials for dosing • a. Four sets • i. R1+ (PBS-AP) • ii. R1− (PBS) • iii. […] Prepare 96-well plates for PNPP reading (3 wells for each test chemical) Procedure • 1. Aliquot 300 μL of each reaction reagent to 4 mL glass vials. • 2. Add 30 μL of the test sample to each 4 mL glass vial. • 3. Incubate at room temperature for 4 hours. • 4. Aliquot 3 mL of PNPP to each 4 mL glass vial, let sit for 1 hr. • a. Aliquot 750 μL into the 4 mL glass vial to stop the reaction. • 5.
# skin = settings: cited from earlier work; for in vivo GHS: skin
# alkaline phosphatase [3] = assay type: biochemical; settings: PBS; 18 hours room temperature, PNPP 1 hour
# From the text: Our next study compared different dilutions of the original alkaline phosphatase source (1:10 [Activity: 1,000 units] and 1:100 [100 units]) and two sources of alkaline phosphatase, both purchased from Sigma Aldrich (St. Louis, MO). […] The five conditions for this study included original alkaline phosphatase (1:1), original alkaline phosphatase (1:10), original alkaline phosphatase (1:100), new alkaline phosphatase (1:1), and the blanks (phosphate buffered saline (PBS)). […] The two controls contained ink to determine if there would be any background effect.
# Preparation • 1. Alkaline phosphatase reaction reagent • a. Original AP • i. Add 1 mL PBS into AP vial, pipette re-pipette 10 times, then invert with cap on, to mix well. Take this 1 mL and add to 50 mL conical tube filled with 40 mL PBS. Invert to mix 10 times, vortex mix, let sit 2 minutes, invert to mix again 10 times • ii. Prepare 2 more 50 mL conical tubes • 1. 1:10 • a. […] 1:100 • a. Take 4 mL of solution made above, add to 36 mL PBS. […] New AP • i. Add 400 mg into a 50 mL conical tube filled with 40 mL PBS. Invert to mix 10 times, vortex mix, let sit 2 minutes, invert to mix 10 more times. Check to make sure all suspended. If not, vortex mix and invert until fully suspended. • 2. Prepare 24-well plates • 3. […] Aliquot with 200 μL PNPP Conditions • 1. Old AP • 2. Old AP (1:10) • 3. Old AP (1:100) • 4. New AP • 5. Blank (PBS only) Procedure • 1. 24-well plates • a. Add 1 mL (using P1000, blue tips) of the prepared PBS-AP to the plate (for each condition) • b. Add 100 μL of the test material to the well, mix with the same pipette tip, dispose and repeat for the rest of the test materials • c. Wrap the plate in saran wrap and place into the container • d. […] To the prepared 96-well plate with 200 μL PNPP or PBS, add 20 μL from the 24-well plate • 3. Incubate for 1 hour • 4.
# alkaline phosphatase [4] = assay type: biochemical; settings: 3-hour exposure; 10 μL into 90 μL
# phosphatase = assay type: biochemical, porcine; settings: for percent of phosphatase measured (optical density compared to the naïve condition), average: average of two readings; for percent of phosphatase measured (optical density compared to the naïve condition): single readings
# Procedure: Our next studies involved applying the test substance (500 μL) directly to the epidermis side of previously frozen porcine skin (Spear Products, Coopersburg, PA) that is placed in a holder that only exposes the epidermis side for 30 minutes, adding phosphate buffered saline (PBS) with added sodium azide (metabolic inhibitor that ensure no viable tissue), then aliquoting into cuvettes to read at an optical density of 300 nm. […] So, at the end of the initial studies described above, almost out of frustration, we tried to probe for released phosphatase activity using p-Nitrophenyl phosphate disodium salt (PNPP; Sigma Aldrich, St. Louis, MO) substrate solution to detect any presence of phosphatase.
# Preparation • 1. Thaw 2 pieces of frozen porcine skin • a. Punch out as many skin discs and mount in holders • 2. Label cuvettes (3 for each chemical) Procedure • 1. Add 500 μL of test chemical to holder; incubate at room temperate for 30 minutes • 2. After 30 minutes, add 2 mL of PBS-Azide to both the holder containing the test chemical; forcefully pipette and re-pipette 10 times • 3. From the holder, aliquot 400 μL into 3 cuvettes; forcefully pipette and re-pipette 3 times before dispensing into cuvettes Reading Results • 1. Measure at OD300 for all cuvettes
# Skin corrosion by GHS Category 1 dermal corrosive chemicals results in the disintegration of the epidermis into the dermis.
# alkaline phosphatase [5] = experiment: Alkaline phosphatase experiment, third week: with and without discs; assay type: biochemical; settings: 405 nm, 100 μL chemical, 18 hours 37° C., PNPP 1 hour; for raw optical density reading (PNPP), with discs (FIG. 3A): 1.25 mL reaction reagent (10,000 units); for raw optical density reading (PNPP), without discs (FIG. 3B): 1.25 mL reaction reagent
# From the text: Our next study focused on an in vitro method of detecting the potential of dermal corrosives to inhibit nonspecific phosphatases that may be released from the skin. We decided to test pure […] instead of relying on endogenous skin phosphatase. Alkaline phosphatase (Sigma Aldrich, St. Louis, MO) was purchased and suspended to make the reaction reagent (10,000 units). […] We note that the ratio used was 0.1 g/ml or 10% chemical—which is far in excess of any pharmaceutical applications. We further note that pharmaceutical enzyme inhibition tests, studies an use involve highly specific active site binding and these assays are conducted at ratios of micrograms-femtograms per ml. These studies are done at these ranges because these are the realistic concentrations for drug applications and therapeutics. […] So when a 50 Kg human consumes the tables, the tissues will be exposed at a 5 mg/50 kg=0.1 mg/kg=0.0000001 g/ml.
# Next two quantitative methods were evaluated: 1) using the discs parts from our OptiSafe™ test method and 2) directly into the 24-well plate.
# Preparation • 1. Alkaline phosphatase reaction reagent • a. Take 1 vial of AP, add 1 mL of PBS, mix by pipette/re-pipette 10 times • b. To a 50 mL conical tube, add 1 mL of the AP solution prepared above and 40 mL of PBS • 2. Prepare two 24-well plates (1 with discs, 1 without discs) • 3. […] Aliquot 200 μL PNPP and PBS Procedure • 1. Plate 1 (No Discs) • a. Add 1.25 mL from the prepared PBS-AP conical tube to each well (11 wells) • b. Add 100 μL of the test material to the well, mix with the same pipette tip, dispose and repeat for the rest of the test materials • c. Wrap the plate in saran wrap and place into the container • 2. Plate 2 (Discs) • a. Configure the 11 discs in the plate so the plate cover is stable • b. Add 1.25 mL from the prepared PBS-AP conical tube to each well (11 wells) • c. Add 100 μL of the test material to the center of the disc and repeat for the rest of the test materials • d. Put the plate cover on and place into the container • 3. […] Incubate for 1 hour Reading Results • 1. Measure at OD405
# porcine skin = system: porcine skin
# Procedure: Our initial studies involved using fresh and frozen porcine skin “buttons”. These buttons were punched out of porcine skin (Spear Products, Cooopersburg, PA) using a […] biopsy punch tool. Three different kinds of skin buttons were prepared from fresh porcine skin, frozen porcine skin, and frozen porcine skin with the fatty layer removed. […] The next day, the tubes were taken out and vortexed and 500 μL of the solution was aliquoted into cuvettes to read at three different optical density wavelengths (OD190, OD290, OD300) to evaluate the best response.
# Skin Preparation • 1. Thaw 2 pieces of frozen porcine skin • 2. Punch out buttons: 24 buttons in each tube filled with 40 mL PB S-Azide 96-well plate Preparation • 1. Plate layout for dosing:
# Procedure • 1. Dose each tissue with 140 μL of test chemical • 2. […] Take out of incubator and vortex pulse 3× • 2. Aliquot 500 μL to cuvette and read results at OD190, OD290, and OD300
# There were three readings done at an optical density of 190, 290, and 300 nm to evaluate the best response. […] To address the variable exposure conditions, our next studies involved placing a larger porcine skin section into a holder that exposes only the epidermis side with no potential for test chemical exposure from the backside or through the sides.
# alkaline phosphatase [6] = assay type: biochemical; remark: listed apart in the source
# Procedure: For the new study, the alkaline phosphatase was suspended in phosphate buffered saline (PBS) to make the reaction reagent. Then, 100 μL of the test chemical is added directly into the corresponding wells on a 24-well plate with 1.25 mL of alkaline phosphatase reaction reagent already aliquoted.
# Preparation • 1. Alkaline phosphatase reaction reagent • a. Take 1 vial of AP, add 1 mL of PBS, mix by pipette/re-pipette 10 times • b. To a 50 mL conical tube, add 1 mL of the AP solution prepared above and 40 mL of PBS • 2. Prepare two 24-well plates • 3. […] Aliquot with 200 μL PNPP and PBS • 4. Prepare glass vials Repeat Procedure from 1-3-23 • 1. 24-well plate • a. Add 1.25 mL from the prepared PBS-AP conical tube to each well (11 wells) • b. Add 100 μL of the test material to the well, mix with the same pipette tip, dispose and repeat for the rest of the test materials • c. Wrap the plate in saran wrap and place into the container • 2. […] To the prepared 96-well plate with 200 μL PNPP or PBS, add 20 μL from the 24-well plate • 4. Incubate for 1 hour • 5. […] 24-well plate • a. Add 1.25 mL from the prepared PBS-AP conical tube to each well (11 wells) • b. Add 100 μL of the test material to the well, mix with the same pipette tip, dispose and repeat for the rest of the test materials • c. After 10 minutes, mix each well • 2. To the prepared 96-well plate with 200 μL PNPP or PBS, add 20 μL from the 24-well plate • 3. […] Aliquot 200 μL from the 24-well plate to glass vials filled with 2 mL of PNPP
# [7] = chemical lists of the experiments
# [8] = 10 minutes test chemical exposure
compound,measurement,setting,value
Cc1ccc(C(C)C)cc1O,A2 - Results AVG,alkaline phosphatase [1],2.597
same,A2 - Results R1,alkaline phosphatase [1],2.462
same,A2 - Results R3,alkaline phosphatase [1],2.772
same,"OD405 readings, buffered saline alkaline phosphatase reaction reagent, glass vials (FIG. 11B)",alkaline phosphatase [2],1.990 and 1.926
same,"OD405 readings, ethanol alkaline phosphatase reaction reagent, glass vials (FIG. 11D)",alkaline phosphatase [2],3.444 and 3.465 and 3.398
same,in vivo GHS,skin; [7],Cat. 1B/1C
same,"OD405 readings, original alkaline phosphatase 1:100 (FIG. 6D)",alkaline phosphatase [3],0.991 and 0.974 and 1.167
"C=CCCC=C [1,5-Hexadiene]",A2 - Results AVG,alkaline phosphatase [1],2.717
same,A2 - Results R1,alkaline phosphatase [1],2.692
same,A2 - Results R3,alkaline phosphatase [1],2.693
same,"OD405 reading, ethanol solvent, 10 μL dose, 1-hour PNPP (FIG. 7B)",alkaline phosphatase [4],2.947
same,"OD405 reading, ethanol solvent, 10 μL dose, 30-minute PNPP (FIG. 7A)",alkaline phosphatase [4],1.702
CC(=O)O [Acetic acid],"percent of phosphatase measured (optical density compared to the naïve condition), average",phosphatase,18.9%
same,percent of phosphatase measured (optical density compared to the naïve condition),phosphatase,19.1% and 18.6%
same,"raw optical density reading (PNPP), with discs (FIG. 3A)",alkaline phosphatase [5],0.106 and 0.102 and 0.103
same,"raw optical density reading (PNPP), without discs (FIG. 3B)",alkaline phosphatase [5],0.104 and 0.129 and 0.101
same,A1 - Results AVG,alkaline phosphatase [1],0.096
same,A1 - Results R1,alkaline phosphatase [1],0.096
same,A1 - Results R3,alkaline phosphatase [1],0.096
same,A2 - Results AVG,alkaline phosphatase [1],0.850
same,A2 - Results R1,alkaline phosphatase [1],0.996
same,A2 - Results R3,alkaline phosphatase [1],0.829
same,OD190,porcine skin; pig,>3A
same,Corrosive,"skin; rabbit, in vivo",Yes
CN(C)CCCNCCCN [Dimethyldipropylenetriamine],"percent of phosphatase measured (optical density compared to the naïve condition), average",phosphatase,20.6%
same,percent of phosphatase measured (optical density compared to the naïve condition),phosphatase,23.5% and 17.7%
same,"raw optical density reading (PNPP), with discs (FIG. 3A)",alkaline phosphatase [5],0.152 and 0.159 and 0.140
same,"raw optical density reading (PNPP), without discs (FIG. 3B)",alkaline phosphatase [5],0.138 and 0.176 and 0.133
same,A2 - Results AVG,alkaline phosphatase [1],0.117
same,A2 - Results R1,alkaline phosphatase [1],0.119
same,A2 - Results R3,alkaline phosphatase [1],0.114
same,"raw optical density reading (PNPP), repeat without discs (FIG. 4)","alkaline phosphatase [6]; 405 nm, 18 hours 37° C. exposure, PNPP 1 hour",0.132 and 0.128 and 0.127
same,10-minute PNPP incubation readings (FIG. 5A),alkaline phosphatase [6]; [8],3.500
same,18-hour PNPP incubation readings (FIG. 5D),alkaline phosphatase [6]; [8],0.110
same,OD190,"porcine skin; fresh porcine skin, 140 μL test chemical, R 1 and 2, >3A = outside readable range",>3A
same,Corrosive,skin; Yes/No,Yes
same,in vivo GHS,skin; Tables 1A-1C and 2,Cat. 1A
same,in vivo GHS,skin; [7],Cat. 1A
CCCCCCCCC=O [Nonyl aldehyde],A2 - Results AVG,alkaline phosphatase [1],2.227
same,A2 - Results R1,alkaline phosphatase [1],2.496
same,A2 - Results R3,alkaline phosphatase [1],2.117
same,"OD405 reading, ethanol solvent, 10 μL dose, 1-hour PNPP (FIG. 7B)",alkaline phosphatase [4],3.078
same,"OD405 reading, ethanol solvent, 10 μL dose, 30-minute PNPP (FIG. 7A)",alkaline phosphatase [4],1.589
same,in vivo GHS,skin; [7],Cat. 2
CCCCCCCC(=O)O [Octanoic Acid],A2 - Results AVG,alkaline phosphatase [1],2.342
same,A2 - Results R1,alkaline phosphatase [1],2.12
same,A2 - Results R3,alkaline phosphatase [1],2.129
same,"OD405 readings, buffered saline alkaline phosphatase reaction reagent, glass vials (FIG. 11B)",alkaline phosphatase [2],1.427 and 1.415 and 1.416
same,"OD405 readings, ethanol alkaline phosphatase reaction reagent, glass vials (FIG. 11D)",alkaline phosphatase [2],3.283 and 3.408 and 3.220
same,"OD405 readings, original alkaline phosphatase 1:100 (FIG. 6D)",alkaline phosphatase [3],3.462 and 3.491 and 3.333
"[K+].[OH-] [Potassium hydroxide (10%), Potassium hydroxide]",A2 - Results AVG,alkaline phosphatase [1],0.108
same,A2 - Results R1,alkaline phosphatase [1],0.107
same,A2 - Results R3,alkaline phosphatase [1],0.108
same,"raw optical density reading (PNPP), repeat without discs (FIG. 4)",alkaline phosphatase [6],0.123 and 0.124
